Among the test systems are OVCAR-5; EKVX; DU-145; NCI/ADR-RES; UACC-62; MDA-MB-435; SNB-19; CAKI-1; U-251; NCI-H522; HOP-92; Malme-3M; UACC-257; SNB-75; OVCAR-3; M14; LOX IMVI; SW-620; HOP-62; SF-539.
What all share (experiment): DTP human tumour cell line panel, 48 h

SMILES strings stand for the structures.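 Each compound was tested at five concentrations against cells in 96-well plates for 48 hours. Abbreviation: GI50, concentration required for 50% inhibition of growth.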 The source made the active and inactive calls. No stated cut-off is given here; in the data, active = GI50 up to about 1.1 µM and inactive = higher. Residues, ends and D or L forms follow the SMILES beside them. *: point of attachment. Pentanoyl = CCCCC(=O)*; Boc = CC(C)(C)OC(=O)*

This is an account of results in ChEMBL document CHEMBL1201862, “PubChem BioAssay data set” (2004).

As a reminder, the GI50 is the concentration giving 50% growth inhibition. For the compound `O=[N+]([O-])c1cccc(CSc2nc(O)c3nc[nH]c3n2)c1`, the GI50 in the experiment with OVCAR-5 is > 100 µM (inactive); in the experiment with EKVX it was > 100 µM (inactive); in the experiment with DU-145 it was > 100 µM (inactive); in the experiment with NCI/ADR-RES, > 100 µM (inactive); with UACC-62, 50.1 µM (inactive); in the experiment on MDA-MB-435 it was > 100 µM (inactive). For the same compound, the GI50 with SNB-19 was > 100 µM (inactive); in the experiment with CAKI-1 it was > 100 µM (inactive); with U-251 it was > 100 µM (inactive); with NCI-H522, 76.6 µM (inactive); in the experiment on HOP-92, > 100 µM (inactive); with Malme-3M, > 100 µM (inactive). Moreover, the GI50 with UACC-257, with SNB-75, with OVCAR-3, with M14, with LOX IMVI and with SW-620 was > 100 µM (inactive) in each case. The GI50 in the experiment on HOP-62 was > 100 µM (inactive).
In the case of `CC(=O)Nc1ncc2c(n1)-c1ccccc1OC2`, the GI50 in the experiment on OVCAR-5, in the experiment with EKVX, in the experiment on DU-145, in the experiment on NCI/ADR-RES, in the experiment on UACC-62 and in the experiment with MDA-MB-435 was > 100 µM (inactive) each time. Moreover, the GI50 in the experiment on SNB-19, with CAKI-1, in the experiment with U-251, in the experiment with NCI-H522, in the experiment with HOP-92 and in the experiment with SF-539 was > 100 µM (inactive) in each case. In addition, the GI50 is > 100 µM (inactive) in the experiment with UACC-257; 65.2 µM (inactive) in the experiment with SNB-75; > 100 µM (inactive) in the experiment with OVCAR-3; > 100 µM (inactive) in the experiment on M14; > 100 µM (inactive) in the experiment with LOX IMVI; > 100 µM (inactive) in the experiment on SW-620.
Regarding `Cc1c(C)c2c(c(N)c1C#N)C(=O)N(Nc1ccccc1)C2=O`, the GI50 is > 100 µM (inactive) with OVCAR-5; 43.9 µM (inactive) in the experiment with EKVX; > 100 µM (inactive) in the experiment on DU-145; 52.4 µM (inactive) in the experiment with NCI/ADR-RES; 51.4 µM (inactive) in the experiment on UACC-62; 72.8 µM (inactive) in the experiment with MDA-MB-435. The GI50 was 39.1 µM (inactive) in the experiment with SNB-19; > 100 µM (inactive) in the experiment with CAKI-1; 43.5 µM (inactive) in the experiment on U-251; 29.2 µM (inactive) in the experiment on NCI-H522; 28.5 µM (inactive) in the experiment on HOP-92; 40.1 µM (inactive) in the experiment with SF-539. Moreover, the GI50 is 51.5 µM (inactive) with Malme-3M; 81.8 µM (inactive) with UACC-257; 30.6 µM (inactive) with SNB-75; 52.2 µM (inactive) in the experiment on OVCAR-3; > 100 µM (inactive) with M14; 3.51 µM (inactive) in the experiment on LOX IMVI. Also, the GI50 in the experiment with SW-620 was > 100 µM (inactive).
On to `CCC(NC1=NCCO1)c1cccs1` (centres undefined), for which the GI50 was 17 µM (inactive) in the experiment with OVCAR-5; 16.5 µM (inactive) with EKVX; 13.7 µM (inactive) in the experiment on DU-145; 43.1 µM (inactive) in the experiment on NCI/ADR-RES; 16 µM (inactive) in the experiment with UACC-62; 14.5 µM (inactive) in the experiment with MDA-MB-435. Moreover, the GI50 is 16.3 µM (inactive) in the experiment on SNB-19; 17.2 µM (inactive) in the experiment with CAKI-1; 13.5 µM (inactive) in the experiment with U-251; 19.5 µM (inactive) in the experiment with NCI-H522; 17.4 µM (inactive) in the experiment with HOP-92; 15.5 µM (inactive) in the experiment with SF-539. Further, the GI50 is 13 µM (inactive) in the experiment on Malme-3M; 18 µM (inactive) in the experiment on UACC-257; 3.24 µM (inactive) in the experiment with SNB-75; 16.9 µM (inactive) with OVCAR-3; 19 µM (inactive) in the experiment on M14; 23.7 µM (inactive) with LOX IMVI. Moreover, in the experiment with SW-620, the GI50 is 24.3 µM (inactive).
On to `CCN(CC)c1ccc2cc(C(=O)Nc3ccccn3)c(=N)oc2c1`, for which the GI50 was 80.2 µM (inactive) in the experiment on OVCAR-5; > 100 µM (inactive) in the experiment with EKVX; > 100 µM (inactive) in the experiment on DU-145; 85.3 µM (inactive) in the experiment with NCI/ADR-RES; 30.3 µM (inactive) in the experiment on UACC-62; > 100 µM (inactive) with MDA-MB-435. The GI50 was 19.1 µM (inactive) in the experiment on SNB-19; > 100 µM (inactive) in the experiment on CAKI-1; 37.9 µM (inactive) in the experiment on U-251; > 100 µM (inactive) with HOP-92; 43.5 µM (inactive) in the experiment on SF-539; 60.3 µM (inactive) in the experiment on Malme-3M. Further, the GI50 in the experiment on UACC-257 is > 100 µM (inactive); with SNB-75 it was 28.5 µM (inactive); with OVCAR-3, > 100 µM (inactive); in the experiment on M14 it was > 100 µM (inactive); in the experiment on LOX IMVI it was 71.1 µM (inactive); in the experiment with SW-620, > 100 µM (inactive). In addition, in the experiment on HOP-62, the GI50 is 22.9 µM (inactive).
Turning to `OC1(C2(c3ccc(Cl)cc3)CCCC2)c2ccccc2C2=NCCN21` (centres undefined), the GI50 was 15.8 µM (inactive) in the experiment on OVCAR-5; 16.9 µM (inactive) in the experiment with EKVX; 0.0716 µM (active) in the experiment with DU-145; 17.1 µM (inactive) with NCI/ADR-RES; 16.1 µM (inactive) in the experiment on UACC-62; 12.6 µM (inactive) in the experiment on MDA-MB-435. Also, the GI50 in the experiment on SNB-19 is 16.4 µM (inactive); in the experiment with CAKI-1 it was 14.8 µM (inactive); in the experiment on U-251, 14.2 µM (inactive); in the experiment with NCI-H522 it was 16.2 µM (inactive); with HOP-92 it was 13.4 µM (inactive); with Malme-3M it was 17.7 µM (inactive). The GI50 is 14.2 µM (inactive) with UACC-257; 3.83 µM (inactive) in the experiment on SNB-75; 16.4 µM (inactive) in the experiment on OVCAR-3; 14.2 µM (inactive) in the experiment with M14; 14.4 µM (inactive) in the experiment on LOX IMVI; 22.8 µM (inactive) in the experiment on SW-620. Further, in the experiment on HOP-62, the GI50 was 17.4 µM (inactive).
Consider `Cc1ccc2c(c1)[nH]c(=S)n2/C=C1\C(=O)Oc2ccccc2C1=O`, for which the GI50 was > 100 µM (inactive) in the experiment on OVCAR-5; 41.3 µM (inactive) in the experiment on DU-145; 56.2 µM (inactive) in the experiment with NCI/ADR-RES; 13.1 µM (inactive) in the experiment on UACC-62; 61.8 µM (inactive) in the experiment on MDA-MB-435; 86.5 µM (inactive) in the experiment on SNB-19. In addition, the GI50 was 19.6 µM (inactive) in the experiment with CAKI-1; 53.1 µM (inactive) with U-251; 38.7 µM (inactive) in the experiment on NCI-H522; 39 µM (inactive) in the experiment with HOP-92; 69.7 µM (inactive) in the experiment with SF-539; 34.6 µM (inactive) in the experiment on Malme-3M. For the same compound, the GI50 in the experiment on UACC-257 was 82 µM (inactive); in the experiment with SNB-75 it was 38.4 µM (inactive); with OVCAR-3 it was 24.4 µM (inactive); in the experiment with M14, 39.8 µM (inactive); with LOX IMVI it was 70 µM (inactive); in the experiment with SW-620, 52.6 µM (inactive). Moreover, the GI50 with HOP-62 is 51.3 µM (inactive).
Regarding `Nc1cc([N+](=O)[O-])ccc1C(=O)N1CCC[C@H]1CO`, the GI50 in the experiment on EKVX, in the experiment on DU-145, with NCI/ADR-RES, in the experiment on UACC-62, with MDA-MB-435 and with SNB-19 was > 100 µM (inactive) each time. Further, the GI50 in the experiment with CAKI-1, with U-251, with NCI-H522, in the experiment on HOP-92, in the experiment on SF-539 and in the experiment with Malme-3M was > 100 µM (inactive) each time. Besides, the GI50 in the experiment on UACC-257, in the experiment with SNB-75, in the experiment with LOX IMVI and in the experiment on SW-620 was > 100 µM (inactive) each time.
For the compound `COC(=O)n1c(=O)nc2c3c(ncn21)Oc1c(c(-c2ccccc2)nn1-c1ccccc1)C3c1ccc(Cl)cc1` (centres undefined), the GI50 was 1.32 µM (inactive) in the experiment with OVCAR-5; 1.63 µM (inactive) in the experiment with DU-145; 1.46 µM (inactive) with NCI/ADR-RES; 1.95 µM (inactive) in the experiment on UACC-62; 1.66 µM (inactive) in the experiment with MDA-MB-435; 1.75 µM (inactive) in the experiment on SNB-19. The GI50 with CAKI-1 is 1.63 µM (inactive); in the experiment on U-251 it was 1.71 µM (inactive); in the experiment with NCI-H522, 1.5 µM (inactive); in the experiment with HOP-92, 1.71 µM (inactive); in the experiment with SF-539, 1.76 µM (inactive); with Malme-3M it was 1.04 µM (active). The GI50 in the experiment on UACC-257 was 1.89 µM (inactive); in the experiment on SNB-75 it was 2 µM (inactive); in the experiment with OVCAR-3 it was 1.42 µM (inactive); in the experiment on M14 it was 1.44 µM (inactive); in the experiment with LOX IMVI it was 1.48 µM (inactive); in the experiment on SW-620, 1.69 µM (inactive). Further, the GI50 with HOP-62 was 1.72 µM (inactive).
For `OCC1OC(c2cccc3cc(O)c(O)cc23)CC1O` (centres undefined), the GI50 in the experiment with OVCAR-5 was > 100 µM (inactive); with EKVX, 45.4 µM (inactive); with DU-145, > 100 µM (inactive); in the experiment on NCI/ADR-RES it was > 100 µM (inactive); with UACC-62, > 100 µM (inactive); with MDA-MB-435, > 100 µM (inactive). In addition, the GI50 in the experiment on SNB-19, with U-251, in the experiment on NCI-H522, in the experiment on HOP-92, with SF-539 and with UACC-257 was > 100 µM (inactive) in each case. In addition, the GI50 in the experiment with SNB-75 was > 100 µM (inactive); in the experiment on OVCAR-3 it was 94.8 µM (inactive); in the experiment on M14, > 100 µM (inactive); with LOX IMVI, > 100 µM (inactive); in the experiment with SW-620, > 100 µM (inactive); with HOP-62, > 100 µM (inactive).
As for `CCCCC(=O)Oc1ccc(CC(NC(=O)OC(C)(C)C)C(=O)NC(C)C(=O)NC(Cc2ccccc2)C(=O)NCC(N)=O)cc1` (centres undefined) (Boc-Y(Pentanoyl)AFG-NH2; configuration not given here), the GI50 in the experiment on OVCAR-5 was 21.9 µM (inactive); with DU-145, > 100 µM (inactive); with NCI/ADR-RES, > 100 µM (inactive); in the experiment with UACC-62, 20.5 µM (inactive); with MDA-MB-435, 20 µM (inactive); in the experiment with SNB-19, 23.3 µM (inactive). Moreover, the GI50 was > 100 µM (inactive) in the experiment with CAKI-1; 20.5 µM (inactive) with U-251; 18.8 µM (inactive) in the experiment on NCI-H522; 16.2 µM (inactive) in the experiment with HOP-92; 33.3 µM (inactive) in the experiment with SF-539; 31.6 µM (inactive) with Malme-3M. Further, the GI50 with UACC-257 was 27.7 µM (inactive); in the experiment on SNB-75, 45.5 µM (inactive); in the experiment with OVCAR-3, 20.4 µM (inactive); in the experiment with M14 it was 36.7 µM (inactive); in the experiment on LOX IMVI, 16.1 µM (inactive); with SW-620 it was 44.8 µM (inactive). For the same compound, in the experiment with HOP-62, the GI50 is 17.3 µM (inactive).
